# Reference: article PMC6825211 (Nature Communications, 2019)
# Assays:
# [1] = test system: mouse model of liver and intestine injury; design: method as in PMID 27535619; conditions: cited from earlier work
# MST1 [2] = biological target: T1, MST1 (Homo sapiens, UniProt Q13043); test: Biochemical kinase dose response (Suppl. Fig. 5); conditions: concentrations up to 10 μM
# T1 sequence (Q13043 1-487): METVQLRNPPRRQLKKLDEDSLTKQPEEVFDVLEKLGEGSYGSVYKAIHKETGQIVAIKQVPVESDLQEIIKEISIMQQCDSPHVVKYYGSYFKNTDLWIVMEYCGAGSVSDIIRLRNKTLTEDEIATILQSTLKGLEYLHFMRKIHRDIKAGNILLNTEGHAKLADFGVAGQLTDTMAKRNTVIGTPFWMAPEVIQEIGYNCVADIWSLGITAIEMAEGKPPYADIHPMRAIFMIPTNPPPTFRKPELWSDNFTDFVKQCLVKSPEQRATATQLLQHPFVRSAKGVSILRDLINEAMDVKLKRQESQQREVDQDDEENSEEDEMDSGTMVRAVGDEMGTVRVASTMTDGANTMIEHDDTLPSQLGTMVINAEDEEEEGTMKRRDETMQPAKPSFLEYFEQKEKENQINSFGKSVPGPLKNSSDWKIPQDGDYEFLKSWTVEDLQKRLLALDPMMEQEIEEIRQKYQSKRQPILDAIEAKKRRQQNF
# INS-1E cells = test: Western blot of pMST1, caspase-3/PARP cleavage, PDX1, BIM under diabetogenic conditions; type: cell-based, rat; conditions: 10 μM, 24 h
# Protocol: . pThr183), caspase-3 and PARP cleavage, PDX1, tubulin, and actin were analyzed by western blotting. Representative Western blots and pooled quantitative densitometry analysis are shown from three independent cell line experiments (n = 3). […]; all by Student’s t tests.
# . pThr183), caspase-3 and PARP cleavage, and BIM and actin were analyzed by western blotting. Representative Western blots (b) and pooled quantitative densitometry analysis (c) are shown from 3–6 independent culture dishes (n = 3–6). […]; all by Student’s t tests.
# Human islets were isolated from eight pancreases of nondiabetic organ donors at PRODO Labs and at Lille University and cultured on extracellular matrix-coated dishes (Novamed, Jerusalem, Israel)[62] or on Biocoat Collagen I coated dishes (#356400, Corning, ME, USA). […] The clonal rat β-cell line INS-1E was kindly provided by Dr. Claes Wollheim, Geneva & Lund University. Human islets were cultured in complete CMRL-1066 (Invitrogen) medium at 5.5 mM glucose, mouse islets and INS-1E cells at complete RPMI-1640 medium at 11.1 mM glucose. […] . Palmitic acid (Sigma) was dissolved at 10 mmol/l in RPMI-1640 medium containing 11% fatty acid–free bovine serum albumin (BSA) (Sigma) under an N2-atmosphere and added to the culture at 0.5 mM[64]. […] . Isolated human islets or INS-1E cells were infected with adenovirus carrying LacZ as control or MST1 or LATS2 (all Vector Biolabs), at a multiplicity of infection of 100 (human islets) or 20 (INS-1E) for 4 h[11]. Adenovirus was subsequently washed off with PBS and replaced by fresh medium with 10% FBS and the respective analysis performed after 48 h post infection.
# MST1 [3] = biological target: T2, MST1 (Rattus norvegicus, UniProt A0A8I6A0F8); test: CETSA assay; type: cell-based; conditions: 5 μM, 2 h, INS-1E, 55 °C
# T2 construct: endogenous in cells; host or cells: INS-1E (rat beta-cell line)
# T2 sequence (A0A8I6A0F8 1-487): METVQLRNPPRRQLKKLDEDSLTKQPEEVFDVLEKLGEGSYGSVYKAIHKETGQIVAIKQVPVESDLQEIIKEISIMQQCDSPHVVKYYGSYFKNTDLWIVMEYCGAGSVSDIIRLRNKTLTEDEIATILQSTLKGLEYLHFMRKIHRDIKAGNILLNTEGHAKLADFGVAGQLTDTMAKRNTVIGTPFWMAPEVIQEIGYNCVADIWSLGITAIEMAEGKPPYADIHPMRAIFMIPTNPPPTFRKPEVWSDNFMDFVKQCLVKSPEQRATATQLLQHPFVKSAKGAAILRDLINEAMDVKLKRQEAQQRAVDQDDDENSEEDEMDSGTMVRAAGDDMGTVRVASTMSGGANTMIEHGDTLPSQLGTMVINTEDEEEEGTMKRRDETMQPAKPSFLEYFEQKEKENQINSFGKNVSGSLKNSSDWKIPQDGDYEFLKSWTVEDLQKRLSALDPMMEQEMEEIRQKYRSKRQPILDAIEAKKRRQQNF
# Protocol: Thereafter, cells were pelleted at 200 g for 4 min and resuspended in PBS supplemented with phosphatase and protease inhibitor cocktail at the cell density of 3 Mill./100 µl. Each cell suspension was distributed into five 0.2-ml PCR tubes with 100 µl of cell suspension per tube. PCR tubes were heated at their designated temperature (43–55 °C) on a thermal cycler for 3 min, incubated at room temperature for 3 min, and snap-frozen in liquid nitrogen. Cell lysates were prepared by freezing–thawing the samples in liquid nitrogen twice, and soluble MST1 was detected by western blot analysis.
# MST family members = test system: MST family members; design: method as in PMID 22037378; conditions: cited from earlier work
# MST2 = MST2 (Homo sapiens, UniProt Q13188); test: Biochemical kinase dose response (Suppl. Fig. 2, 5); conditions: concentrations up to 10 μM
# Chain of MST2 (Q13188 whole entry, species assumed): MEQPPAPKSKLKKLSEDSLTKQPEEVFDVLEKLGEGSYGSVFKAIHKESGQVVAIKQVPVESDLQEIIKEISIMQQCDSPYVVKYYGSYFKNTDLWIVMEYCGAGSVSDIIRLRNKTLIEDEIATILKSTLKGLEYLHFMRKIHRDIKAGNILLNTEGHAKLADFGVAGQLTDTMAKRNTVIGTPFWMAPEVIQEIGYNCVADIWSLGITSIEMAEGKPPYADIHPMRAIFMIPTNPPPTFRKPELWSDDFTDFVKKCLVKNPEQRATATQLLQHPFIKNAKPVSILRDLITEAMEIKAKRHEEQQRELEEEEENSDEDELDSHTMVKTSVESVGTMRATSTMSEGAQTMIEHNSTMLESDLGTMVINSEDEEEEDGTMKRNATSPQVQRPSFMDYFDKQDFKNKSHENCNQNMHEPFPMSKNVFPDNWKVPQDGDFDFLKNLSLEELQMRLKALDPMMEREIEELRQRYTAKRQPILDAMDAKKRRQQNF
# MST1–LATS2 signaling [4] = test: LATS-BS in vitro luciferase assay (MST1/LATS2 overexpression)
# Description: Therefore a LATS-BS construct has been generated with fusion of YAP fragment and 14-3-3 with N-terminal and C-terminal firefly luciferase fragments (N-luc and C-luc), respectively that assesses LATS kinase activity by measuring the interaction between pS127-YAP and 14-3-3[35] in a MST1–LATS2-phosphorylation-dependent manner (Fig. 4a).
# As internal transfection control, pRL-Renilla luciferase control reporter vector (Promega) was co-transfected into each sample. […] Luciferase signal was calculated based on the ratio of luciferase activity of LATS-BS to control reporter vector.
# MST1–LATS2 signaling [5] = test: Western blot of YAP-S127 phosphorylation (MST1/LATS2 overexpression); conditions: 10 μM, last 24 h
# MST1 [6] = biological target: T1, MST1; test: LanthaScreen Eu kinase binding assay (HTS and dose response); design: purchased ThermoFisher; conditions: 1 μM; positive control
# Protocol: A total of 39 hits were selected for 9-point dose response confirmation in triplicate, starting at 1 μM followed by 1:5 serial dilution.
# Compounds in 1000× DMSO stock solution were dispensed by using Echo555 liquid dispensing system (Labcyte, CA) to 1536-well microplate (Corning, NY). Kinase buffer A (ThermoFisher, MA) was prepared and added to each well. […] Each reagent was added to the microplate in equal volume.
smiles,measurement,setting,value
CN1C(=O)c2sccc2N(C)c2nc(Nc3ccc(S(N)(=O)=O)cc3)ncc21 [XMU-MP-1],effect in mouse model of liver and intestine injury,[1],promotes tissue repair and regeneration
C=CC(=O)Nc1cc2c(Nc3ccc(F)c(Cl)c3)ncnc2cc1OCCCN1CCOCC1 [canertinib],inhibition of MST1,MST1 [2],no appreciable inhibition
same,"cleaved caspase-3, cleaved PARP, and BIM under basal conditions",INS-1E cells,significant stimulatory effect
same,mitochondrial BIM induction under diabetic conditions,INS-1E cells; HG/Pal,but not the EGFR inhibitor canertinib significantly reduced
same,stress-induced MST1 activation and caspase-3 and PARP cleavage,INS-1E cells; HG/Pal,ineffective
same,thermal stabilization of MST1 in intact cells,MST1 [3],degradation occurred at the same condition
same,activity on MST family members,MST family members,without MST family inhibitory activity
same,inhibition of MST2,MST2,no appreciable inhibition
same,MST1/LATS2-induced luciferase activity (LATS-BS),"MST1–LATS2 signaling [4]; 10 μM, last 24 h",had no inhibitory effect
same,Firefly/Renilla x1000 (MEAN),"MST1–LATS2 signaling [4]; L2/Mst1 overexpression + 10 μM compound, mean of six dishes",27.5257
same,MST1/LATS2-induced YAP-S127 phosphorylation,MST1–LATS2 signaling [5],had no inhibitory effect
CN[C@@H]1C[C@H]2O[C@@](C)([C@@H]1OC)n1c3ccccc3c3c4c(c5c6ccccc6n2c5c31)C(=O)NC4 [staurosporine],inhibition at 1 µM,MST1 [6],100%
